{"source": "patent US5962525A", "about": "“6,7-disubstituted-2-aminotetralines active as immunomodulators and pharmaceutical compositions containing same” (Sigma-Tau, priority 1990, dated 1999)", "key": {"[1]": {"tested_on": "murine peritoneal macrophages; tumor targets Daudi and CEM-CM3", "experiment": "\"In vitro-ex vivo\" effect on the cytotoxic activity of peritoneal macrophages (lysis of 3H-TdR labelled tumor cells)", "parameters": "species or system mouse (B6 D2 F1, C57B16); tumor targets human", "method": "Assessment of the \"in vitro-ex vivo\" effect of ST 557, ST 563, ST 570 and ST 626 on the cytotoxic activity of peritoneal macrophages (M)\nMale hybrid B6 D2 F1 aged 7-9 weeks and male inbred mice C57B16 aged 8 weeks were used (4 animals/group).\nAll the compounds were administered i.p. (25 mg/kg/day). ST 557 was also administered per os (100 mg/kg/day) from day -5 to day -1 (peritoneal exudate cell [PEC] harvesting at day 0).\nPEC were obtained from sacrificed animals, 24 hours following the end of treatment, via repeated washings of the abdominal cavity. The peritoneal exudates obtained from each group of animals were pooled.\nThe macrophage percentage was assessed by counting in a Burker chamber; cell suspensions (concentration=2×10^6 M/ml) were prepared.\nThe macrophage cytotoxic activity was assessed using the following two tumor cell lines as targets: Daudi, derived from a human lymphoblastoma and CEM-CM3, derived from human lymphoblastic leukemia (both lines are disclosed in ATCC--American Type Culture Collection--Cell lines of hybridoma, 5th Ed.--1985).\nThe experimental procedure is substantially the same as that described by Herscowitz, H. B. (1981)--Manual of Macrophage Methodology. Dekker M, Editor.\nIn particular, samples of cell lines were labelled with ^3 H-TdR (tritiated thymidine) and their concentration was adjusted to 5×10^4 cells/ml. They were then added to the macrophage preparations (using 96-well microtiter plates) and the volumes were adjusted so as to obtain Effector (macrophage)/Target (tumor cell) ratios of 20:1; 40:1 and 80:1 in an overall volume of 0.3 ml/well.\nThree replicates for each sample were prepared; after 48 and 72 hours of incubation at 37° C. in 5% CO2. Aliquots of 0.1 ml of supernatant were drawn out from each well and counted in a β-counter.\nThe macrophage cytotoxic activity results in a tumor cell lysis that causes the release of the radioactivity incorporated by the cells into the supernatant.\nBased on the βeta-counter data (in cpm) this activity is expressed as the percentage of radioactivity released following lysis with respect to the radioactivity incorporated by the tumor cells.\nThe relevant formulas are as follows: [formula]\nThe measures carried out on the samples account for a certain degree of lysis occurring spontaneously in cultured tumor cells not exposed to macrophages. Total radioactivity incorporated by the tumor cells is calculated by conducting a lysis with 1% SDS in distilled water."}, "[2]": {"tested_on": "murine peritoneal exudate cells (PEC)", "experiment": "\"In vitro-ex vivo\" effect on the phagocytic activity of exudate peritoneal cells (SRBC phagocytosis)", "parameters": "species or system mouse (B6 D2 F1)", "details": "for SRBC per phagocytizing cell: average number of SRBC in each phagocyte", "method": "Assessment of the \"in vitro-ex vivo\" effect of ST 557, ST 563, ST 564, ST 570, ST 608 and ST 626 on the phagocytic activity of exudate peritoneal cells (PEC)\nMale B6 D2 F1 mice aged 6-8 weeks (5 animals each group) were used.\nThe compounds were administered i.p. (25 mg/kg/day), ST 557, ST 563 and ST 626 were also administered per os (100 mg/kg/day) from day -5 to day -1 (PEC harvesting at day 0).\nThe experimental procedure was substantially the same as that described by Williams et al., in \"Methods in Immunology and Immunochemistry\", Acad. Press. 5: 261 (1976).\nIn particular, 24 hours following the end of the treatment, PECs from each experimental group were harvested, pooled and their concentration was adjusted to 4×10^6 cells/ml.\nTo volumes of 250 μl of each PEC sample were added equal volumes of 0.4% SRBC (Sheep Red Blood Cells) opsonized with hyperimmune serum.\nThe samples (duplicate) were incubated for 1 hour and then subjected to hypotonic shock in order to remove the non-phagocytized SRBC. After restoring the osmolarity, the phagocytes were cytocentrifuged, stained with a differential dye and observed under the microscope.\nThe results were expressed as:\n(a) percentage of cells that have phagocytized with respect to 100 phagocytizing cells;\n(b) total number of phagocytized SRBC;\n(c) average number of SRBC in each phagocyte."}, "splenocytes": {"tested_on": "splenocytes", "experiment": "\"In vitro-ex vivo\" effect on the mytogen (PHA, LPS)-induced splenocyte proliferation in mice", "parameters": "species or system mouse (B6 D2 F1)", "details": "25 mg/kg/day i.p.", "method": "Assessment of the \"in vitro-ex vivo\" effect of ST 557, ST 563, ST 608 on the mytogen (PHA, LPS)-induced splenocyte proliferation in mice\nMale B6 D2 F1 mice aged 6-10 weeks (4 animals per group) were used.\nThe compounds were administered i.p. 25 mg/kg/day, from day -5 to -1 (spleen excision at day 0).\nPHA (active on T lymphocytes) and LPS (active on B lymphocytes) were used as mytogens. Each mytogen was tested at three different concentrations (suboptimal, optimal, superoptimal): 0.5, 4 and 6 mcg/ml/well and 0.5, 150 and 500 mcg/ml/well, respectively.\nThe experimental procedure was conducted substantially as described by Kirchner et al., \"Splenic suppressor macrophages induced in mice by injection of C. parvum\", J. Immunol., 1975, 115: 1212.\nIn particular, the cell suspensions obtained from the spleens of the animals of the same group were pooled and the cell concentration was adjusted to 5×10^6 cells/ml.\nTo volumes of 0.1 ml of each sample, equal volumes of the mytogen preparations were added so as to obtain, for each mytogen, the previously indicated final concentrations.\nEach sample was prepared in triplicate in U-bottom microtiters. A control, to which 0.1 ml of medium were added instead of the mytogen, was also prepared. The control permits the extent of spontaneous proliferation in the absence of stimulation to be assessed.\nThe samples were incubated at 37° C. for 48 hours and then they were pulsed with 20 μl ^3 H-TdR (25 μCi/ml).\nAfter 18 hours of further incubation, the cells were collected on filters and counted in a beta-counter.\nThe results of each sample are expressed by calculating the value of the area under the curve (AUC) obtained by plotting the values of the incorporated radioactivity (in cpm) versus the various concentrations of each mytogen.\nIn addition to AUC, the stimulation index (SI) is also considered, that is defined as follows. [formula]"}}, "note": "Values joined by “and” are separate entries in the source; they are usually repeats but may differ in a detail not shown here. Identical values can stand only once."}
{"smiles": "COc1cc2c(cc1F)CCC(N)C2", "note": "(stereo not drawn) [ST 626, 2-amino-6-fluoro-7-methoxytetraline]", "values": [{"measurement": "% lysis of tumor target", "setting": "[1]; 48 hours, E/T 20:1, 25 mg/kg/day i.p., B6 D2 F1", "result": "7.4 ± 0.2", "unit": "%"}, {"measurement": "% lysis of tumor target", "setting": "[1]; 48 hours, E/T 20:1, 25 mg/kg/day i.p., repeated experiment, B6 D2 F1", "result": "8.0 ± 0.8", "unit": "%"}, {"measurement": "% lysis of tumor target", "setting": "[1]; 48 hours, E/T 20:1, 25 mg/kg/day i.p., repeated experiment, C57B16 mice", "result": "11.8 ± 0.6", "unit": "%"}, {"measurement": "% lysis of tumor target", "setting": "[1]; 48 hours, E/T 40:1, 25 mg/kg/day i.p., B6 D2 F1", "result": "12.8 ± 0.8", "unit": "%"}, {"measurement": "% lysis of tumor target", "setting": "[1]; 48 hours, E/T 40:1, 25 mg/kg/day i.p., repeated experiment, B6 D2 F1", "result": "18.7 ± 0.1% and 11.6 ± 0.7%"}, {"measurement": "% lysis of tumor target", "setting": "[1]; 48 hours, E/T 40:1, 25 mg/kg/day i.p., repeated experiment, C57B16 mice", "result": "12.7 ± 0.1", "unit": "%"}, {"measurement": "% lysis of tumor target", "setting": "[1]; 48 hours, E/T 80:1, 25 mg/kg/day i.p., repeated experiment, B6 D2 F1", "result": "18.8 ± 0.1% and 28.0 ± 5.6%"}, {"measurement": "% lysis of tumor target", "setting": "[1]; 72 hours, E/T 20:1, 25 mg/kg/day i.p., B6 D2 F1", "result": "10.8 ± 0.3", "unit": "%"}, {"measurement": "% lysis of tumor target", "setting": "[1]; 72 hours, E/T 20:1, 25 mg/kg/day i.p., repeated experiment, B6 D2 F1", "result": "12.3 ± 0.6", "unit": "%"}, {"measurement": "% lysis of tumor target", "setting": "[1]; 72 hours, E/T 20:1, 25 mg/kg/day i.p., repeated experiment, C57B16 mice", "result": "12.6 ± 0.1", "unit": "%"}, {"measurement": "% lysis of tumor target", "setting": "[1]; 72 hours, E/T 40:1, 25 mg/kg/day i.p., B6 D2 F1", "result": "17.6 ± 0.8", "unit": "%"}, {"measurement": "% lysis of tumor target", "setting": "[1]; 72 hours, E/T 40:1, 25 mg/kg/day i.p., repeated experiment, B6 D2 F1", "result": "27.5 ± 0.6% and 14.3 ± 0.6%"}, {"measurement": "% lysis of tumor target", "setting": "[1]; 72 hours, E/T 40:1, 25 mg/kg/day i.p., repeated experiment, C57B16 mice", "result": "13.5 ± 0.7", "unit": "%"}, {"measurement": "% lysis of tumor target", "setting": "[1]; 72 hours, E/T 80:1, 25 mg/kg/day i.p., repeated experiment, B6 D2 F1", "result": "28.0 ± 0.7% and 32.0 ± 4.3%"}, {"measurement": "Fagocytizing cells", "setting": "[2]; 25 mg/kg/day i.p.", "result": 41.0, "unit": "%"}, {"measurement": "Total n° SRBC phagocytized", "setting": "[2]; 25 mg/kg/day i.p.", "result": 137.5}, {"measurement": "SRBC per phagocytizing cell", "setting": "[2]; 25 mg/kg/day i.p.", "result": 3.30}, {"measurement": "Fagocytizing cells", "setting": "[2]; 100 mg/kg/day os", "result": 57.0, "unit": "%"}, {"measurement": "Total n° SRBC phagocytized", "setting": "[2]; 100 mg/kg/day os", "result": 222.0}, {"measurement": "SRBC per phagocytizing cell", "setting": "[2]; 100 mg/kg/day os", "result": 3.89}]}
{"smiles": "CCCNC1CCc2cc(OC(C)=O)c(OC(C)=O)cc2C1", "note": "(stereo not drawn) [ST 608, 2-N-propylamino-6,7-diacetoxytetraline]", "values": [{"measurement": "AUC (area under curve, incorporated radioactivity vs mytogen concentration)", "setting": "splenocytes; LPS", "result": "10333 ± 807 ×10^-3 and 18054 ± 970 ×10^-3 and 14490 ± 433 ×10^-3 and 15892 ± 339 ×10^-3"}, {"measurement": "S.I. (stimulation index)", "setting": "splenocytes; LPS", "result": "1.27 and 1.10 and 1.20 and 1.06"}, {"measurement": "AUC (area under curve, incorporated radioactivity vs mytogen concentration)", "setting": "splenocytes; PHA", "result": "183 ± 6 ×10^-3 and 128 ± 4 ×10^-3 and 146 ± 4 ×10^-3 and 233 ± 2 ×10^-3"}, {"measurement": "S.I. (stimulation index)", "setting": "splenocytes; PHA", "result": "1.11 and 1.04 and 1.07 and 1.12"}, {"measurement": "Fagocytizing cells", "setting": "[2]; 25 mg/kg/day i.p.", "result": 41.0, "unit": "%"}, {"measurement": "Total n° SRBC phagocytized", "setting": "[2]; 25 mg/kg/day i.p.", "result": 137.5}, {"measurement": "SRBC per phagocytizing cell", "setting": "[2]; 25 mg/kg/day i.p.", "result": 3.30}]}
